One assay addresses SARS-CoV-2 3CLPro (Severe acute respiratory syndrome coronavirus 2 (2019-nCoV) (SARS-CoV-2), UniProt P0DTD1). The assay can be described thus: biochemical.
Assay [1] has as its target human D-amino acid oxidase (hDAAO) (Homo sapiens (Human), UniProt P14920). The assay is described as follows: In vitro human D-amino acid oxidase (hDAAO) activity, D-Serine/Amplex Red fluorescence. Type of assay: biochemical. The following applies: D-Serine substrate, 20 min. Summed up: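 Recombinant hDAAO activity with D-serine as substrate; H2O2 was coupled via HRP to Amplex Red and fluorescence read at ex 530/em 590 nm at 0 and 20 min, dark, room temperature, Tris pH 8.5 with FAD. Inhibition came from the 20–0 min signal change relative to DMSO, and IC50 from nonlinear fits of 3-fold dilutions run in triplicate.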

[2] abbreviates: final DMSO concentration 2%, read-out: IC50.
Where [3] appears, read: final DMSO concentration 2%, read-out: IC50 (μg/mL) (converted).

SMILES strings stand for the structures. Like-named read-outs stand apart in the source and are kept apart here.

Sequence of human D-amino acid oxidase (hDAAO) (P14920 whole entry): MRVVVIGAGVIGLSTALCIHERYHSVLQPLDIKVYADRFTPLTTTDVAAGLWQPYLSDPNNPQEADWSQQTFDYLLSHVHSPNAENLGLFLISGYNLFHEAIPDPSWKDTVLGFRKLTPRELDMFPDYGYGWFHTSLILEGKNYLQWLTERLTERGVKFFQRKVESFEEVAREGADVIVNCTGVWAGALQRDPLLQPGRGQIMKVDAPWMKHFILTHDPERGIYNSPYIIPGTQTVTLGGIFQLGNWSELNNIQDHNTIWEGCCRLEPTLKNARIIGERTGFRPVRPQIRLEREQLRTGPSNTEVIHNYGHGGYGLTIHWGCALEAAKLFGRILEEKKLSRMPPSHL

Regarding `O=C(O)c1cc(O)c(O)c(OC(=O)c2cc(O)c(O)c(OC(=O)c3cc(O)c(O)c(OC(=O)c4cc(O)c(O)c(OC(=O)c5cc(O)c(O)c(OC(=O)c6ccccc6)c5)c4)c3)c2)c1` [Compound 77, 3-((3-((3-((3-((3-(benzoyloxy)-4,5-dihydroxybenzoyl)oxy)-4,5-dihydroxybenzoyl)oxy)-4,5-dihydroxybenzoyl)oxy)-4,5-dihydroxybenzoyl)oxy)-4,5-dihydroxybenzoic acid], the IC50 on SARS-CoV-2 3CLPro (final DMSO concentration 0.4%, read-out: IC50) is 4330 nM; on SARS-CoV-2 3CLPro (final DMSO concentration 0.4%, read-out: IC50 (μg/mL) (converted)), 4330 nM; in assay [1] it was 72 nM.
Take `O=C(CC1CCCCC1)Oc1cc(C(=O)Oc2cc(C(=O)Oc3cc(C(=O)Oc4cc(C(=O)Oc5cc(C(=O)O)cc(O)c5O)cc(O)c4O)cc(O)c3O)cc(O)c2O)cc(O)c1O` [Compound 80, 3-((3-((3-((3-((3-(2-cyclohexylacetoxy)-4,5-dihydroxybenzoyl)oxy)-4,5-dihydroxybenzoyl)oxy)-4,5-dihydroxybenzoyl)oxy)-4,5-dihydroxybenzoyl)oxy)-4,5-dihydroxybenzoic acid]: the values for the IC50 (at SARS-CoV-2 3CLPro (setting [2]); on SARS-CoV-2 3CLPro (setting [3]); in assay [1]) were > 62500 nM, > 62500 nM and 58 nM, respectively.
As for `O=C(Oc1ccccc1)c1cc(O)c(O)c(OC(=O)c2cc(O)c(O)c(OC(=O)c3cc(O)c(O)c(OC(=O)c4cc(O)c(O)c(OC(=O)c5cc(O)c(O)c(OC(=O)c6ccccc6)c5)c4)c3)c2)c1` [Compound 85, 5-((5-((5-((2,3-dihydroxy-5-(phenoxycarbonyl)phenoxy)carbonyl)-2,3-dihydroxyphenoxy)carbonyl)-2,3-dihydroxyphenoxy)carbonyl)-2,3-dihydroxyphenyl 3-(benzoyloxy)-4,5-dihydroxybenzoate], the values for the IC50 (at SARS-CoV-2 3CLPro (setting [2]); on SARS-CoV-2 3CLPro (setting [3]); in assay [1]) were 2370 nM, 2370 nM and 31 nM, respectively.
As for `O=C(OCc1cc(CCc2ccc(F)cc2)n[nH]1)c1cc(O)c(O)c(OC(=O)c2cc(O)c(O)c(OC(=O)c3cc(O)c(O)c(OC(=O)c4cc(O)c(O)c(OC(=O)c5cc(O)c(O)c(O)c5)c4)c3)c2)c1` [Compound 92, 5-((5-((5-((5-(((3-(4-fluorophenethyl)-1H-pyrazol-5-yl)methoxy)carbonyl)-2,3-dihydroxyphenoxy)carbonyl)-2,3-dihydroxyphenoxy)carbonyl)-2,3-dihydroxyphenoxy)carbonyl)-2,3-dihydroxyphenyl 3,4,5-trihydroxybenzoate], the IC50 at SARS-CoV-2 3CLPro (setting [2]) was 2420 nM; at SARS-CoV-2 3CLPro (setting [3]), 2420 nM; in assay [1], 23 nM.
In assay [1], `O=C(OC[C@H]1O[C@@H](OC(=O)c2cc(O)c(O)c(OC(=O)c3cc(O)c(O)c(OC(=O)c4cc(O)c(O)c(OC(=O)c5cc(O)c(O)c(OC(=O)c6cc(O)c(O)c(O)c6)c5)c4)c3)c2)[C@H](OC(=O)c2cc(O)c(O)c(OC(=O)c3cc(O)c(O)c(OC(=O)c4cc(O)c(O)c(OC(=O)c5cc(O)c(O)c(OC(=O)c6cc(O)c(O)c(O)c6)c5)c4)c3)c2)[C@@H]1OC(=O)c1cc(O)c(O)c(OC(=O)c2cc(O)c(O)c(OC(=O)c3cc(O)c(O)c(OC(=O)c4cc(O)c(O)c(OC(=O)c5cc(O)c(O)c(O)c5)c4)c3)c2)c1)c1cc(O)c(O)c(OC(=O)c2cc(O)c(O)c(OC(=O)c3cc(O)c(O)c(OC(=O)c4cc(O)c(O)c(OC(=O)c5cc(O)c(O)c(O)c5)c4)c3)c2)c1` [Compound 148, (2S,3R,4R,5R)-5-(((3-((3-((3-((3,4-dihydroxy-5-((3,4,5-trihydroxybenzoyl)oxy)benzoyl)oxy)-4,5-dihydroxybenzoyl)oxy)-4,5-dihydroxybenzoyl)oxy)-4,5-dihydroxybenzoyl)oxy)methyl)tetrahydrofuran-2,3,4-triyl tris(3-((3-((3-((3,4-dihydroxy-5-((3,4,5-trihydroxybenzoyl)oxy)benzoyl)oxy)-4,5-dihydroxybenzoyl)oxy)-4,5-dihydroxybenzoyl)oxy)-4,5-dihydroxybenzoate)] had an IC50 of 4 nM.
Still for that read-out and setting: as for `O=C(O)c1cc(O)c(O)c(OC(=O)c2cc(O)c(O)c(OC(=O)c3cc(O)c(O)c(OC(=O)c4cc(O)c(O)c(O)c4)c3)c2)c1` [Compound 149, 3-((3-((3,4-dihydroxy-5-((3,4,5-trihydroxybenzoyl)oxy)benzoyl)oxy)-4,5-dihydroxybenzoyl)oxy)-4,5-dihydroxybenzoic acid], the figure is 48 nM.

Values taken from patent US11793823B2, “Compounds and pharmaceutical uses thereof” (SyneuRx International (Taiwan) Corp., priority 2020, dated 2023).
